In US20230322715A1, “BROAD SPECTRUM ANTI-CANCER COMPOUNDS” (The Regents of the University of California, priority 2019, published 2023):
Values joined by “and” are separate entries in the source; they are usually repeats but may differ in a detail not shown here. Equal entries are not always repeated. Where two headings read alike, the source gives them in different places. One block for each compound: values may come before it.

Assays:
[1] = target: FTO (Homo sapiens (Human), UniProt Q9C0B1); test: Fluorescence enzymatic inhibition assay (m6A7-Broccoli RNA / DFHBI-1T) against FTO; type: biochemical
Chain of FTO (Q9C0B1 whole entry): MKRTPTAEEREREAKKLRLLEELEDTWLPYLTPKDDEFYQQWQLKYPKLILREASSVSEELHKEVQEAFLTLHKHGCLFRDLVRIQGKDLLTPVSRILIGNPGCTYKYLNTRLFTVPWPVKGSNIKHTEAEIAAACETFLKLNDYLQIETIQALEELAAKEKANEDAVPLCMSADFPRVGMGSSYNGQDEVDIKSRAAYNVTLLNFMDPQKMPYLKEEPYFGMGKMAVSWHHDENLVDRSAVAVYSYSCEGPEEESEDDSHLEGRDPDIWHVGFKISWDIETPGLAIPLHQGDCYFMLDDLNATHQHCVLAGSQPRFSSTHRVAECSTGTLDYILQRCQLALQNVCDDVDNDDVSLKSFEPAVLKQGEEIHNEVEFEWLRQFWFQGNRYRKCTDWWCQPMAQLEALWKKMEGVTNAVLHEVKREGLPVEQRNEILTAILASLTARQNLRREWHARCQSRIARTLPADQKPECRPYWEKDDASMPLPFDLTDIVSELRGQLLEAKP
Protocol: In order to determine their efficacy as FTO inhibitors, the compounds were screened by a fluorescence enzymatic inhibition assay developed previously by the Jaffrey lab.^44 Briefly, a nonfluorescent methylated RNA substrate termed “m6A7-Broccoli” is incubated with FTO in the presence of 2-oxoglutarate (300 μM), (NH4)2Fe(SO4)2·6H2O (300 μM), and L-ascorbate (2 mM) for 2 hours at room temperature in reaction buffer (50 mM NaHEPES, pH 6).
(§1) Inhibitors were added in concentrations ranging from 0.008-40 μM; all inhibitors were dissolved in DMSO and added to a final concentration of 0.2% DMSO. […] After incubation at room temperature for 2 hours, the plates were left at 4° C. overnight (16 hours) to allow DFHBI-1T to bind to A7-Broccoli RNA. […] Sigmoidal dose-response curves were fitted in GraphPad Prism 6. All assays were performed in triplicate, with additional repetitions added as necessary.

[2] = elogD / log D determination
[3] = target: ALKBH5 (Homo sapiens (Human), UniProt Q6P6C2); test: Fluorescence enzymatic inhibition assay (m6A7-Broccoli RNA / DFHBI-1T) against ALKBH5; type: biochemical
Chain of ALKBH5 (Q6P6C2 whole entry): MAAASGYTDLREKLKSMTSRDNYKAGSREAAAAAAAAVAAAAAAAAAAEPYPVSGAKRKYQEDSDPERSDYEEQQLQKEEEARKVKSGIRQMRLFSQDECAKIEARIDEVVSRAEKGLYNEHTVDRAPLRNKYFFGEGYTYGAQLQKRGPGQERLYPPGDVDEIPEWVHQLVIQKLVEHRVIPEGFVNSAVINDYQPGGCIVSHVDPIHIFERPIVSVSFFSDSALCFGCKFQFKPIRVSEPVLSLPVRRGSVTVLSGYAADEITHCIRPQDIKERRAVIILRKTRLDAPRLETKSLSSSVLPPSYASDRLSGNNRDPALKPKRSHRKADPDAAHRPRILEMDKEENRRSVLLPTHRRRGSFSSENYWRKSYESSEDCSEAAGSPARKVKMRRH
Protocol: as §1

[4] = Table 800 compounds, read-out: ALKBH5 IC50
[5] = Table 800 compounds, read-out: FTO IC50
[6] = m6A7-Broccoli fluorescence assay, 0.250 μM ALKBH5, read-out: Enzymatic IC50 ALKBH5
[7] = Table 700 compounds, read-out: Enzymatic IC50 ALKBH5
[8] = Table 700 compounds, read-out: Enzymatic IC50 FTO
[9] = m6A7-Broccoli fluorescence assay, 0.250 μM FTO, inhibitor up to 40 μM, triplicate, read-out: Enzymatic IC50 FTO

IC50 ([1]; read-out: Enzymatic IC50 FTO): 10.3 ± 2.29 µM
Structure (SMILES): COc1ccccc1C(=O)N1CC(Oc2ccccc2)CC1C(=O)Nc1ccccc1SC (centres unmarked) [TR-FTO 2-08]

elogD ([2]; Table 800 compounds): 2.05
IC50 [3, 4]: 2.3 µM
IC50 [1, 5]: 59.4 µM
Structure (SMILES): CN(CCCN1c2ccccc2CCc2ccccc21)S(=O)(=O)c1ccc(OC(F)(F)F)cc1 [TR-ALKBH5-40]

elogD ([2]; Table 800 compounds): 0.37
IC50 [3, 4]: 0.24 µM
IC50 [1, 5]: 19.7 µM
Structure (SMILES): O=S(=O)(NCC1CCCOC1)c1ccc(OC(F)(F)F)cc1 (centres unmarked) [TR-ALKBH5-04]

elogD ([2]; Table 800 compounds): 1.13
IC50 [3, 4]: 0.4 µM
IC50 [1, 5]: 23.2 µM
Structure (SMILES): O=S(=O)(Nc1ccccc1N1CCCCC1)c1ccc(OC(F)(F)F)cc1 [TR-ALKBH5-36]

elogD ([2]; Table 800 compounds): 2.25
IC50 [3, 4]: 2.2 µM
IC50 [1, 5]: > 40 µM
Structure (SMILES): O=S(=O)(NCc1ccccn1)c1ccc(OC(F)(F)F)cc1 [TR-ALKBH5-32]

elogD [2]: 0.75
IC50 [3, 6]: 3.3 µM
Structure (SMILES): c1cc2cc(CNCC3(N4CCCC4)COC3)ccc2[nH]1 [TR-FTO-37]

IC50 ([1]; read-out: Enzymatic IC50 FTO): 1.24 ± 0.65 µM
Structure (SMILES): COc1ccc(CNC(=O)C2CC(Oc3ccccc3)CN2C(=O)c2ccccc2OC)cc1 (centres unmarked) [TR-FTO 2-03]

Structure (SMILES): CC1(C)[C@H](C(=O)O)N2C(=O)C[C@H]2S1(=O)=O [ALK-09]
elogD ([2]; Table 700 compounds): 0.41
IC50 [3, 7]: 3.8 µM and 5.7 µM
IC50 [1, 8]: > 40 µM

elogD ([2]; Table 800 compounds): 0.60
IC50 [3, 4]: 23.3 µM
IC50 [1, 5]: > 40 µM
Structure (SMILES): Cc1ccc(NS(=O)(=O)c2ccc(OC(F)(F)F)cc2)cc1C [TR-ALKBH5-34]

elogD ([2]; Table 700 compounds): 0.58
IC50 [3, 7]: 17.5 µM
IC50 [1, 8]: 103 µM and > 40 µM
Structure (SMILES): CCOC(=O)C1CC1C1NCCS1 (centres unmarked) [ALK-01]

elogD ([2]; Table 700 compounds): 0.73
IC50 ([3]; ALK series, permeability data and IC50 tables, read-out: Enzymatic IC50 ALKBH5): 5.4 ± 1.4 µM
IC50 [3, 7]: 5.4 ± 0.7 µM
IC50 [1, 8]: 14.2 ± 3.1 µM
Structure (SMILES): COC(=O)C1COC(c2ccc(-c3ccccc3)o2)N1 (centres unmarked) [ALK-18]

elogD [2]: 0.87
IC50 [3, 6]: 9.9 µM
Structure (SMILES): Cc1ccc(CNCC2(N3CCCC3)COC2)cc1C [TR-FTO-30]

elogD ([2]; Table 800 compounds): 2.58
IC50 [3, 4]: 1.9 µM
IC50 [1, 5]: 27.6 µM
Structure (SMILES): O=S(=O)(Nc1ccc(F)c(Cl)c1)c1ccc(OC(F)(F)F)cc1 [TR-ALKBH5-38]

elogD ([2]; Table 700 compounds): 0.67
IC50 [3, 7]: 1.4 ± 0.4 µM
IC50 [1, 8]: > 40 µM
Structure (SMILES): CCN(CC)c1ccc(C2NC(C(=O)OC)CS2)c(O)c1 (centres unmarked) [ALK-30]

elogD ([2]; Table 800 compounds): 1.12
IC50 [3, 4]: 1.9 µM
IC50 [1, 5]: > 40 µM
Structure (SMILES): CC(=O)c1ccc(S(=O)(=O)NCC2CCCOC2)cc1 (centres unmarked) [TR-ALKBH5-05]

Structure (SMILES): Fc1ccc2[nH]cc(CNCC3(N4CCCC4)COC3)c2c1 [TR-FTO-11]
IC50 [3, 6]: 6.6 µM

Structure (SMILES): COc1ncc(-c2ccc3cc(O)ccc3c2)cn1 [FTO-2, 6-(2-methoxypyrimidin-5-yl)naphthalen-2-ol]
IC50 [3, 6]: 85.5 µM

IC50 ([1]; read-out: Enzymatic IC50 FTO): 0.61 ± 0.17 µM
Structure (SMILES): COc1cc(NC(=O)C2CC(Oc3ccccc3)CN2C(=O)c2ccccc2OC)cc(OC)c1 (centres unmarked) [TR-FTO 2-01]

elogD ([2]; Table 800 compounds): 0.83
IC50 [3, 4]: 0.25 µM
IC50 [1, 5]: 285 µM
Structure (SMILES): C[C@@H](NS(=O)(=O)c1ccc(OC(F)(F)F)cc1)c1cccnc1 [TR-ALKBH5-42]

elogD ([2]; Table 800 compounds): 0.89
IC50 [3, 4]: 0.5 µM
IC50 [1, 5]: 6.4 µM
Structure (SMILES): O=S(=O)(NCC1CCCOC1)c1ccccc1 (centres unmarked) [TR-ALKBH5-08]

Structure (SMILES): Fc1ccc2c(CNCC3(N4CCCC4)COC3)c[nH]c2c1 [TR-FTO-12]
IC50 [3, 6]: 2.3 µM

Structure (SMILES): FC1CCN(C2(CNCc3ccc(-c4ccccc4)o3)COC2)C1 (centres unmarked) [TR-FTO-48]
elogD [2]: 1.34
IC50 [3, 6]: 2.6 µM
IC50 [1, 9]: 2 µM

elogD ([2]; Table 700 compounds): 0.16
IC50 [3, 7]: 19.8 ± 1.8 µM
IC50 [1, 8]: > 40 µM
Structure (SMILES): CC1(C)SCC(C)(C(=O)O)N1C(N)=O (centres unmarked) [ALK-05]

elogD ([2]; Table 700 compounds): 0.89
IC50 [3, 7]: 8.8 µM and 7.95 µM
IC50 [1, 8]: > 40 µM
Structure (SMILES): O=C(O)[C@H]1NCCS1 [ALK-06]

Structure (SMILES): c1ccc2c(CNCC3(N4CCCC4)COC3)c[nH]c2c1 [TR-FTO-13]
IC50 [3, 6]: > 40 µM
IC50 [1, 9]: 1 µM

IC50 ([1]; read-out: Enzymatic IC50 FTO): 0.17 ± 0.03 µM
Structure (SMILES): COc1ccccc1C(=O)N1CC(Oc2ccccc2)CC1C(=O)NCc1cccnc1 (centres unmarked) [TR-FTO 2-07]

elogD ([2]; Table 700 compounds): 1.40
IC50 [3, 7]: 16.6 µM
IC50 [1, 8]: > 40 µM
Structure (SMILES): CC(C)(C)OC(=O)N1CCC(F)(C2NCCS2)C1 (centres unmarked) [ALK-02]
